Publication PMC5400620, “Preclinical therapeutic efficacy of a novel blood-brain barrier-penetrant dual PI3K/mTOR inhibitor with preferential response in PI3K/PTEN mutant glioma” (Oncotarget, 2017)

Assay: pharmacokinetic study in mice, plasma and brain concentrations by LC-MS/MS
Format: in vivo, nude mice
Description: We studied the plasma concentration-time profile of DS following a single PO administration (6 mg/kg) in mice (Figure 1). Plasma concentrations remained generally constant and higher than 2 μmol/L up to 6 hours after treatment. The brain-to-plasma ratio of total concentrations remained unchanged and was approximately 0.1 between 1 and 6 hours after treatment (Figure 1A and 1B). Both plasma and brain DS concentrations decreased at 24 hours after treatment.
Figure 1 A. and B. Plasma and brain concentration-time profile of DS7423 following a single PO administration (6 mg/kg) to nude mice. C. Western blot of mouse brains probed with antibodies against pAkt (Ser473) and pS6 (Ser235/236) in a time profile similar to that shown in A and B. Results are presented as the mean ± SE of six animals in each group.
Mice were implanted with U87 cells intracranially as described previously. Twenty-one days after injection of the tumor cells,mice were randomized into groups. Mice were given a 6 mg/kg oral (PO) dose of DS. Blood samples of approximately 0.15 mL were collected from mice (n = 4 mice per time point) by retro-orbital bleeding in tubes containing K2EDTA as the anticoagulant pre-dose and at 2, 4, 6, and 24 hours post-dose. Plasma was collected and stored at −80°C until analysis. DS concentrations were determined by liquid chromatography-tandem mass spectrometry (LC-MS/MS) following plasma protein precipitation with acetonitrile and injection of the supernatant onto a TSK-GEL ODS-100V column (150 mm × 2 mm, 5 μm particle size). A Shimadzu 10A system (Shimadzu Corp., Kyoto, Japan) coupled with an AB Sciex API4000 triple-quadrupole mass spectrometer (Applied Biosystems, Foster City, CA) was used for the LC-MS/MS assay. […] DS and its internal standard ([^2H8]DS) were analyzed in the multiple reaction monitoring mode using the mass transitions of m/z 521→479 and 529→487, respectively. The lower and upper limits of quantitation were 2 and 5000-ng/mL10 μmol/L, respectively. […] For DS quantitation, mouse brains were homogenized in 3 volumes of 50% acetonitrile. […]

In the case of `CC(=O)N1CCN(c2nc3c(N4CCOCC4)nc(-c4cnc(N)nc4)nc3n2CC(F)(F)F)C[C@H]1C` [DS, 1-{(2R)-4-[2-(2-Aminopyrimidin-5-yl)-6-(morpholin-4-yl)-9-(2,2,2-trifluoroethyl)-9H-purin-8-yl]-2-methylpiperazin-1-yl}ethan-1-one], the “concentration achievable in the mouse brains” value is reported as 200 nM, the Kp at 6 h (nude, mouse, brain and plasma, single PO 6 mg/kg, between 1 and 6 hours after treatment, read-out: brain-to-plasma ratio of total concentrations) is reported as ~0.1 and the plasma concentration (single PO 6 mg/kg, up to 6 hours after treatment) is reported as “higher than 2 μmol/L”.
